According to patent publication US11242334B2, “Heterocyclic compounds as kinase inhibitors, compositions comprising the heterocyclic compound, and methods of use thereof” (JS INNOPHARM (SHANGHAI) LTD, priority 2017, dated 2022):

Legend:
human ERK2 = target: T1, human ERK2 (Homo sapiens, UniProt P28482); experiment: LanthaScreen TR-FRET enzymatic assay, ERK2; settings: IC50 values of ERK2 biochemical activity; 5 μM ATP, 400 nM ATF2-GFP substrate
T1 construct: recombinantly expressed as GST-tagged full-length protein purified from E. coli; GST; purchased Invitrogen PV3311; host or cells: E. coli
T1 sequence (P28482 whole entry): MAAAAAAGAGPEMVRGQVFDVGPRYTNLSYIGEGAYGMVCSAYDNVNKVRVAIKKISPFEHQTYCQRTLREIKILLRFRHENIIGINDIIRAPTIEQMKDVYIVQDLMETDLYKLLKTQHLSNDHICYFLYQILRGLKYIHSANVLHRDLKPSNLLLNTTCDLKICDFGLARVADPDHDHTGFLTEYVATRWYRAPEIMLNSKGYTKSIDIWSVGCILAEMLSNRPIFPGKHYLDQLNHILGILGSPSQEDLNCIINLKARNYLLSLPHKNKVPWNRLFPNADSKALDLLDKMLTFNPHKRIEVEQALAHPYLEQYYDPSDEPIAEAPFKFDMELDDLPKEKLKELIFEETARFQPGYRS
Procedure, shortened: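 GST-tagged full-length ERK2 from E. coli, activated with MAP2K1, was used at 20 ng/ml with 400 nM GFP-ATF2(19-96) and 5 μM ATP (near Km). Compound was pre-incubated 15 min, and the reaction ran 1 h at room temperature. pThr71 was detected by Tb-antibody TR-FRET ratio, with IC50 from sigmoid fitting against 1% DMSO.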

Colo205 cell line = experiment: Colo205 cell proliferation assay (MTT assay, WST-8 readout); assay type: cell-based; settings: Homo sapiens; IC50 values of growth inhibition in Colo 205 cells; 72 hours
Procedure, shortened: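 Colo205 cells were seeded at 5,000 cells/well in RPMI-1640 with 10% FBS and attached for 24 h at 37° C. They were then exposed for 72 h to compound at final 50 μM to 0.005 μM (0.5% DMSO). Viability was read as WST-8 absorbance at 450 nm after 2 h, and IC50 of growth inhibition was determined.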

SMILES | IC50 (human ERK2) | IC50 (Colo205 cell line)
Cc1cc(-c2n[nH]c3ccc(-c4ccn(Cc5ccc(F)c(OC(F)(F)F)c5)c(=O)c4)cc23)ccn1 [Example 78, 1-(4-fluoro-3-(trifluoromethoxy)benzyl)-4-(3-(2-methylpyridin-4-yl)-1H-indazol-5-yl)pyridin-2(1H)-one] | 10 to 50 nM | 1000 to 5000 nM
CC(=O)Nc1c(F)cccc1Cn1ccc(-c2ccc3[nH]nc(-c4ccnc(C)c4)c3c2)cc1=O [Example 88, N-(2-fluoro-6-((4-(3-(2-methylpyridin-4-yl)-1H-indazol-5-yl)-2-oxopyridin-1(2H)-yl)methyl)phenyl)acetamide] | < 10 nM | 1000 to 5000 nM
Cc1cc(-c2n[nH]c3ccc(-c4ccn(Cc5ccnc(C(F)(F)F)c5)c(=O)c4)cc23)ccn1 [Example 89, 4-(3-(2-methylpyridin-4-yl)-1H-indazol-5-yl)-1-((2-(trifluoromethyl)pyridin-4-yl)methyl)pyridin-2(1H)-one] | < 10 nM | ≤ 500 nM
Cn1cc(-c2n[nH]c3ccc(-c4ccn(Cc5cccc(Br)c5)c(=O)c4)cc23)cn1 [Example 90, 1-(3-bromobenzyl)-4-(3-(1-methyl-1H-pyrazol-4-yl)-1H-indazol-5-yl)pyridin-2(1H)-one] | < 10 nM | ≤ 500 nM
Cn1cc(-c2n[nH]c3ccc(-c4ccn(Cc5cccc(C(F)(F)F)c5)c(=O)c4)cc23)cn1 [Example 91, 4-(3-(1-methyl-1H-pyrazol-4-yl)-1H-indazol-5-yl)-1-(3-(trifluoromethyl)benzyl)pyridin-2(1H)-one] | < 10 nM | 500 to 1000 nM
Cn1cc(-c2n[nH]c3ccc(-c4ccn(Cc5cc(F)cc(C(F)(F)F)c5)c(=O)c4)cc23)cn1 [Example 92, 1-(3-fluoro-5-(trifluoromethyl)benzyl)-4-(3-(1-methyl-1H-pyrazol-4-yl)-1H-indazol-5-yl)pyridin-2(1H)-one] | < 10 nM | ≤ 500 nM
Cn1cc(-c2n[nH]c3ccc(-c4ccn(Cc5cccc(I)c5)c(=O)c4)cc23)cn1 [Example 93, 1-(3-iodobenzyl)-4-(3-(1-methyl-1H-pyrazol-4-yl)-1H-indazol-5-yl)pyridin-2(1H)-one] | < 10 nM | ≤ 500 nM
Cc1cc(-c2n[nH]c3ccc(-c4ccn(Cc5ccc6cn[nH]c6c5)c(=O)c4)cc23)ccn1 [Example 94, 1-((1H-indazol-6-yl)methyl)-4-(3-(2-methylpyridin-4-yl)-1H-indazol-5-yl)pyridin-2(1H)-one] | < 10 nM | 1000 to 5000 nM
Cn1cc(-c2n[nH]c3ccc(-c4ccn(Cc5ccnc(C(F)(F)F)c5)c(=O)c4)cc23)cn1 [Example 95, 4-(3-(1-methyl-1H-pyrazol-4-yl)-1H-indazol-5-yl)-1-((2-(trifluoromethyl)pyridin-4-yl)methyl)pyridin-2(1H)-one] | < 10 nM | 1000 to 5000 nM
CC(c1cc(F)cc(Br)c1)n1ccc(-c2ccc3[nH]nc(-c4cnn(C)c4)c3c2)cc1=O (stereo not drawn) [Example 96, 1-(1-(3-bromo-5-fluorophenyl)ethyl)-4-(3-(1-methyl-1H-pyrazol-4-yl)-1H-indazol-5-yl)pyridin-2(1H)-one] | < 10 nM | 500 to 1000 nM
CC(c1ccc(F)c(Cl)c1)n1ccc(-c2ccc3[nH]nc(-c4cnn(C)c4)c3c2)cc1=O (stereo not drawn) [Example 97, 1-(1-(3-chloro-4-fluorophenyl)ethyl)-4-(3-(1-methyl-1H-pyrazol-4-yl)-1H-indazol-5-yl)pyridin-2(1H)-one] | 10 to 50 nM | 1000 to 5000 nM
CNCC(c1cccc(Cl)c1)n1ccc(-c2ccc3[nH]nc(-c4cnn(C)c4)c3c2)cc1=O (stereo not drawn) [Example 98, 1-(1-(3-chlorophenyl)-2-(methylamino)ethyl)-4-(3-(1-methyl-1H-pyrazol-4-yl)-1H-indazol-5-yl)pyridin-2(1H)-one] | < 10 nM | ≤ 500 nM
CC(C)Oc1ccc(-c2n[nH]c3ccc(-c4ccn(Cc5cc(F)cc(Br)c5)c(=O)c4)cc23)cn1 [Example 99, 1-(3-bromo-5-fluorobenzyl)-4-(3-(6-isopropoxypyridin-3-yl)-1H-indazol-5-yl)pyridin-2(1H)-one] | < 10 nM | 1000 to 5000 nM
CC(C)Oc1ccc(-c2n[nH]c3ccc(-c4ccn([C@H](CO)c5ccc(Cl)c(F)c5)c(=O)c4)cc23)cn1 [Example 100] | 10 to 50 nM | 1000 to 5000 nM

Results, then the molecule that gave them:

IC50 (human ERK2) | IC50 (Colo205 cell line) | SMILES
< 10 nM | ≤ 500 nM | Cc1cc(-c2n[nH]c3ccc(-c4ccn(Cc5ccc(F)c(C(F)(F)F)c5)c(=O)c4)cc23)ccn1 [Example 77, 1-(4-fluoro-3-(trifluoromethyl)benzyl)-4-(3-(2-methylpyridin-4-yl)-1H-indazol-5-yl)pyridin-2(1H)-one]
< 10 nM | 500 to 1000 nM | Cc1cc(-c2n[nH]c3ccc(-c4ccn(Cc5cc(F)cc(F)c5)c(=O)c4)cc23)ccn1 [Example 79, 1-(3,5-difluorobenzyl)-4-(3-(2-methylpyridin-4-yl)-1H-indazol-5-yl)pyridin-2(1H)-one]
< 10 nM | 1000 to 5000 nM | Cc1cc(-c2n[nH]c3ccc(-c4ccn(Cc5cccc(C(F)(F)F)c5F)c(=O)c4)cc23)ccn1 [Example 80, 1-(2-fluoro-3-(trifluoromethyl)benzyl)-4-(3-(2-methylpyridin-4-yl)-1H-indazol-5-yl)pyridin-2(1H)-one]
< 10 nM | ≤ 500 nM | Cc1cc(-c2n[nH]c3ccc(-c4ccn(Cc5cccc(F)c5F)c(=O)c4)cc23)ccn1 [Example 81, 1-(2,3-difluorobenzyl)-4-(3-(2-methylpyridin-4-yl)-1H-indazol-5-yl)pyridin-2(1H)-one]
< 10 nM | 500 to 1000 nM | Cc1cc(-c2n[nH]c3ccc(-c4ccn(Cc5cccc(F)c5N)c(=O)c4)cc23)ccn1 [Example 82, 1-(2-amino-3-fluorobenzyl)-4-(3-(2-methylpyridin-4-yl)-1H-indazol-5-yl)pyridin-2(1H)-one]
< 10 nM | 1000 to 5000 nM | Cc1cc(-c2n[nH]c3ccc(-c4ccn(Cc5cccc(F)c5NS(C)(=O)=O)c(=O)c4)cc23)ccn1 [Example 83, N-(2-fluoro-6-((4-(3-(2-methylpyridin-4-yl)-1H-indazol-5-yl)-2-oxopyridin-1(2H)-yl)methyl)phenyl)methanesulfonamide]
< 10 nM | ≤ 500 nM | Cn1cc(-c2n[nH]c3ccc(-c4ccn(Cc5ccc(F)c(Cl)c5)c(=O)c4)cc23)cn1 [Example 84, 1-(3-chloro-4-fluorobenzyl)-4-(3-(1-methyl-1H-pyrazol-4-yl)-1H-indazol-5-yl)pyridin-2(1H)-one]
< 10 nM | ≤ 500 nM | Cn1cc(-c2n[nH]c3ccc(-c4ccn(Cc5cc(Br)ccc5F)c(=O)c4)cc23)cn1 [Example 85, 1-(5-bromo-2-fluorobenzyl)-4-(3-(1-methyl-1H-pyrazol-4-yl)-1H-indazol-5-yl)pyridin-2(1H)-one]
< 10 nM | ≤ 500 nM | Cn1cc(-c2n[nH]c3ccc(-c4ccn(Cc5cc(F)cc(Br)c5)c(=O)c4)cc23)cn1 [Example 86, 1-(3-bromo-5-fluorobenzyl)-4-(3-(1-methyl-1H-pyrazol-4-yl)-1H-indazol-5-yl)pyridin-2(1H)-one]
< 10 nM | > 5000 nM | Cc1cc(-c2n[nH]c3ccc(-c4ccn(Cc5cccc(F)c5NC(N)=O)c(=O)c4)cc23)ccn1 [Example 87, 1-(2-fluoro-6-((4-(3-(2-methylpyridin-4-yl)-1H-indazol-5-yl)-2-oxopyridin-1(2H)-yl)methyl)phenyl)urea]
